# Experimental data reported in EP4563579A1, “MACROCYCLIC EGFR INHIBITOR, AND PREPARATION METHOD THEREFOR AND PHARMACEUTICAL USE THEREOF” (Abbisko Therapeutics Co., Ltd., priority 2022, dated 2024).
# pIC50: −log10 of the molar value. Where two headings read alike, the source gives them in different places.
# Assays:
# Format in all cases: cell-based
# [1] = system: Ba/F3 EGFR-L858R-C797S (LC); test: Cell proliferation assay (CellTiter-Glo), Ba/F3 LC; settings: Ba/F3 EGFR-L858R-C797S cells, 72 hour incubation, CTG readout
# Procedure: (§1) • DMEM Medium (Gibco, Cat#11965118) • RPMI1640 Medium (Gibco, Cat#11875119) • Fetal Bovine Serum (FBS) (GBICO, Cat#10099-141) • CellTiter-Glo® Luminescent Cell Viability Assay Kit (Promega, Cat#G7572) 96-well, Black, Clear Flat Bottom Plate (Corning®, Cat# 3603)
# (§2) • SpectraMax Multimode Microplate Reader MD, 2104-0010A; • CO2 Incubator, Thermo Scientific 3100 Series; • Biosafety Cabinet, Thermo Scientific, 1300 Series A2; • Inverted Microscope, Olympus, CKX41SF; • Siemens Refrigerator, KK25E76TI.
# (§3) • 1. Cell Culture and Inoculation: • (1) Harvest cells in a logarithmic growth phase and count the cells using a […]. Test cell viability using a trypan blue exclusion method to ensure that cell viability is above 90%. • (2) Adjust the cell concentration to desired final density; and add 90 µL of cell suspension to a 96-well plate. • (3) Incubate the cells overnight at 37°C, under 5% CO2 and 95% humidity in the 96-well plate. • 2. T0 Reference Data: • (1) Add 10 µL PBS to each well of the T0 plate containing cells. • (2) Thaw the CTG reagent and equilibrate the plate to room temperature for 30 minutes. • (3) Add an equal volume of CTG solution to each well. • (4) Lyse cells by shaking on an orbital shaker for 5 minutes. • (5) Leave the plate at room temperature for 20 minutes to stabilize the luminescence signal. • (6) Read the T0 […]. • 3. Compound Dilution and Addition • (1) Add a corresponding volume of DMSO to a corresponding compound powder according to the compound information sheet to prepare a 10 mM stock solution. • (2) Prepare 1000-fold and 3.16-fold diluted compound solutions. • (3) Dilute the 1000× diluted compound solution 100-fold with PBS to prepare a 10-fold compound solution, with a maximum concentration of 10 µM, nine concentrations and 3.16-fold dilution. Then add 10 µL of the drug solution concentration to individual wells of the 96-well plate seeded with cells. Test each compound concentration in triplicate wells, and the final DMSO concentration is 0.1%. • (4) Incubate the cells in the 96-well plate containing the drug compounds at 37°C, under 5% CO2, and 95% humidity for an additional 72 hour period prior to performing the CTG analysis. • 4. Fluorescence Signal Reading • (1) Thaw the CTG reagent and equilibrate the plate to room temperature for 30 minutes. • (2) Add an equal volume of CTG solution to each well. • (3) Lyse cells by shaking on an orbital shaker for 5 minutes. • (4) Leave the plate at room temperature for 20 minutes to stabilize the […]. • (5) Read fluorescence value. • 5. Data Processing
# (§4) Analyze the data by using GraphPad Prism 7.0 software, and use Non-linear S-curve regression to fit the dose-response curves, to calculate the IC50 values (in nM). The specific experiment results are presented in Table 1: [formula] Table 1: Biology Test Results
# A431 WT = test: Cell proliferation assay (CellTiter-Glo), A431 WT; settings: A431 WT cells, 72 hour incubation, CTG readout
# Procedure: as §1, §2, §3, §4
# [2] = system: Ba/F3 EGFR-L858R-T790M-C797S (LTC); test: Cell proliferation assay (CellTiter-Glo), Ba/F3 LTC; settings: Ba/F3 EGFR-L858R-T790M-C797S cells, 72 hour incubation, CTG readout
# Procedure: as §1, §2, §3, §4
"pIC50 ([1]; Mus musculus, BaF3)","pIC50 (A431 WT; Homo sapiens, A-431)","pIC50 ([2]; Mus musculus, BaF3)",SMILES,pIC50 ([1]; read-out: IC50 BaF3 LC),pIC50 (A431 WT),pIC50 ([2]; read-out: IC50 BaF3 LTC)
7.62,6.32,7.88,"CO[C@H]1CCN(c2nn3c4cc(ncc24)Nc2ccnc(n2)-c2cnn(C)c2OCC2(CCCC2)C3)C1 [Example 16, (S)-3'-(3-methoxypyrrolidin-1-yl)-1'-methylspiro(cyclopentane-1,6'-8-oxa-3-aza-4(6,1)-pyrazolo[4,3-c]pyridina-2(2,4)-pyrimidina-1(4,5)-pyrazolacyclooctaphane)]",–,–,–
7.49,6.41,8.11,"COC[C@@H]1CCN(c2nn3c4cc(ncc24)Nc2ccnc(n2)-c2cnn(C)c2OCC2(CCCC2)C3)C1 [Example 17, (R)-3'-(3-(methoxymethyl)pyrrolidin-1-yl)-1'-methyls piro(cyclopentane-1,6'-8-oxa-3-aza-4(6,1)-pyrazolo[4,3-c]pyridina-2(2,4)-pyrimidina-1(4,5)-pyrazolacyclooctaphane)]",–,–,–
7.44,6.07,7.90,Cn1ncc2c1OCC1(CCCC1)Cn1nc(N3CC[C@H](NC(=O)C(F)(F)F)C3)c3cnc(cc31)Nc1ccnc-2n1 [Example 56],–,–,–
7.07,5.98,7.49,"Cn1ncc2c1OCC1(CCCC1)Cn1nc(N3CCC(F)(F)C3)c3cnc(cc31)Nc1ccnc-2n1 [Example 15, 3'-(3,3-difluoropyrrolidin-1-yl)-1'-methylspiro(cyclopentane-1,6'-8-oxa-3-aza-4(6, 1)-pyrazolo[4,3-c]pyridina-2(2,4)-pyrimidina-1(4,5)-pyrazolacyclooctaphane)]",–,–,–
7.51,6.58,7.79,"Cn1ncc2c1OCC1(CCCC1)Cn1nc(N3CCC(NS(C)(=O)=O)C3)c3cnc(cc31)Nc1ccnc-2n1 (stereo in doubt) [Example 52, (R)-N-(1-(1'-methylspiro(cyclopentane-1,6'-8-oxa-3-aza-4(6,1)-pyrazolo[4,3-c]pyridina-2(2,4)-pyrimidina-1(4,5) -pyrazolacyclooctaphane)-3' -yl)pyrrolidin-3-yl)methanes ulfonamide]",–,–,–
7.09,5.59,7.45,"Cn1ncc2c1OCC1(CCCC1)Cn1nc(N3CC[C@H](NC(=O)OC(C)(C)C)C3)c3cnc(cc31)Nc1ccnc-2n1 [Example 47, Tert-butyl (S)-(1-(1'-methylspiro(cyclopentane-1,6'-8-oxa-3-aza-4(6,1)-pyrazolo[4,3-c]pyridina-2(2,4)-pyrimidina-1(4,5) -pyrazolacyclooctaphane)-3 '-yl)pyrrolidin-3-yl)carbam ate]",–,–,–
7.06,5.97,7.68,Cn1ncc2c1OCC1(CCCC1)Cn1nc(N3CC[C@@H](NC(=O)C(F)(F)F)C3)c3cnc(cc31)Nc1ccnc-2n1 [Example 50],–,–,–
6.91,6.20,7.21,"CN1CCC(F)(C#Cc2nn3c4cc(ncc24)Nc2ccnc(n2)-c2cnn(C)c2OCC2(CCC2)C3)CC1 [Example 12, 3'-((4-fluoro-1-methylpiperidin-4-yl)ethynyl)-1'-methyls piro(cyclobutane-1,6'-8-oxa-3-aza-4(6,1)-pyrazolo[4,3-c]pyridina-2(2,4)-pyrimidina-1 (4,5)-pyrazolacyclooctaphane)]",–,–,–
7.60,6.12,7.96,"COCC[C@@H]1CCN(c2nn3c4cc(ncc24)Nc2ccnc(n2)-c2cnn(C)c2OCC2(CCCC2)C3)C1 [Example 18, (S)-3'-(3-(2-methoxyethyl)pyrrolidin-1-yl)-1'-methylspi ro(cyclopentane-1,6'-8-oxa-3-aza-4(6,1)-pyrazolo[4,3-c]pyridina-2(2,4)-pyrimidina-1(4,5)-pyrazolacyclooctaphane)]",–,–,–
7.42,6.29,7.80,"Cn1ncc2c1OCC1(CCCC1)Cn1nc(N3CC[C@H](C(C)(C)O)C3)c3cnc(cc31)Nc1ccnc-2n1 [Example 20, (S)-2-(1-(1'-methylspiro[cyclopentane-1,6'-8-oxa-3-aza-4(6,1)-pyrazolo[4,3-c]pyridina-2(2,4)-pyrimidina-1(4,5)-pyrazolacyclooctaphane]-3'-yl)pyrrolidin-3-yl)propan-2-ol]",–,–,–
–,–,–,CC(=O)N[C@@H]1CCN(c2nn3c4cc(ncc24)Nc2ccnc(n2)-c2cnn(C)c2OCC2(CCCC2)C3)C1 [Example 49],7.22,6.03,7.53
7.27,5.73,7.21,"C[C@H]1CCOc2c(cnn2C)-c2nccc(n2)Nc2cc3c(cn2)c(C#CC2CCN(C)CC2)nn31 [Example A3, (S)-1^1,5-dimethyl-4^3-((1-methylpiperidin-4-yl)ethynyl)-1^1H,4^1H-8-oxa-3-aza-4(6,1) -pyrazolo[4,3-c]pyridina-2(2,4)-pyrimidina-1(4,5)-pyra zolacyclooctaphane]",–,–,–
6.75,5.60,6.78,"C[C@H]1CCOc2c(cnn2C)-c2nccc(n2)Nc2cc3c(cn2)c(C#CC2CN(C)C2)nn31 [Example A2, (S)-1^1,5-dimethyl-4^3-((1-methylazetidin-3-yl)ethynyl)-1^1 H,4^1H-8-oxa-3-aza-4(6,1)-p yrazolo[4,3-c]pyridina-2(2,4)-pyrimidina-1(4,5)-pyrazol acyclooctaphane]",–,–,–
7.71,6.11,7.95,"COCC[C@H]1CCN(c2nn3c4cc(ncc24)Nc2ccnc(n2)-c2cnn(C)c2OCC2(CCCC2)C3)C1 [Example 19, (R)-3'-(3-(2-methoxyethyl)pyrrolidin-1-yl)-1'-methyls piro(cyclopentane-1,6'-8-oxa-3-aza-4(6,1)-pyrazolo[4,3-c]pyridina-2(2,4)-pyrimidina-1(4,5)-pyrazolacyclooctaphane)]",–,–,–
7.45,5.87,7.55,"Cn1ncc2c1OCC1(CCCC1)Cn1nc(C#CC3CCNCC3)c3cnc(cc31)Nc1ccnc-2n1 [Example 6, 1'-methyl-3'-(piperidin-4-ylethynyl)spiro(cyclopentane-1,6'-8-oxa-3-aza-4(6,1)-pyrazolo[4,3-c]pyridina-2(2,4)-pyrimidina-1(4,5)-pyrazolacyclooctaphane)]",–,–,–
